Laboratory results published in PubChem BioAssay AID743395 (Broad Institute, 2014).

System: HepG2 viability, CellTiter-Glo ATP luminescence, 72 h
Experiment: HepG2 cell cytotoxicity, dose response, cytotoxicity control, CellTiter-Glo luminescence, cherry-pick, set 2 (AID 743395)

| Structure (SMILES) | AC35 [µM] |
| --- | --- |
| COc1ccc(Nc2nc3cc(-c4sccc4C)sc3c(=O)n2C)cc1OC | 5.88 |
| COc1ccc(CCNc2c3ccccc3nc3ccccc23)cc1OC | 6.93 |
| CCCC(=O)NC(c1ccc(N(C)C)cc1)c1ccc2cccnc2c1O (stereo not given) | 1.18 |
| Nc1sc(-c2ccccc2)cc1-c1n[nH]c(=S)n1C1CCCCC1 | 7.54 |
| CN1c2ccc(-c3ccc(F)cc3)cc2[C@H]2[C@H](CCN2S(=O)(=O)c2ccc(F)cc2)[C@@H]1CO | 20.9 |
| CCN(CC)C(=O)c1oc2ccc(S(=O)(=O)N3CC(C)CC(C)C3)cc2c1C (stereo not given) | 12.9 |
| CCN(Cc1ccccc1)c1ccc(/C=N/N=C(N)N)cc1 | 6.82 |
| CCC(COC(=O)c1cc(OC)c(OC)c(OC)c1)(c1ccccc1)N(C)C (stereo not given) | 18.4 |
| COc1cc(C(=O)N/N=C(\c2ccccc2)c2ccccn2)cc(OC)c1OC | 1.46 |
| COc1ccc(C)cc1Nc1c2c(nc3ccccc13)CCC2 | 8.79 |
| COc1ccccc1NC(=S)N(Cc1ccco1)Cc1cc2cc(C)cc(C)c2[nH]c1=O | 11.6 |
| C/C(=N\NC(=O)c1cc(-c2cccs2)nc2ccccc12)c1ccccn1 | 1.63 |
| COc1ccc(OC)c(Nc2cc(C)nc3ccc(C)cc23)c1 | 2.93 |
| CC(=NNC(=S)N1CC2CCC(CC2)C1)c1cnccn1 | 0.171 |
| COc1ccc([C@H]2CC(=O)C=C(c3c(OC)cccc3OC)C2)cc1 | 3.37 |
| COc1cc(Nc2c3c(nc4ccccc24)CCC3)cc(OC)c1OC | 7.54 |
| CC(=O)NC(c1ccc2ccccc2c1)c1ccc2cccnc2c1O (stereo not given) | 0.641 |
| CC1(C(=O)NCc2ccccc2)Cc2c(-c3ccc(C(N)=O)cc3)ccnc2O1 (stereo not given) | 13.8 |
| Cc1ccc(S(=O)(=O)N2CCCCC2CCNC(=O)C(=O)NCc2ccccc2)cc1 (stereo not given) | 12.5 |
| Cc1ccc(S(=O)(=O)NCCCNS(=O)(=O)c2ccc(C)cc2)cc1 | 20 |
| CCN(c1cccc(C)c1)S(=O)(=O)c1ccc(-c2cc(C)no2)s1 | 8.73 |
| COc1nc(-c2ccccc2)cc(-c2ccc3c(c2)OCO3)c1C#N | 8.32 |
| Cc1nc(N)[nH]c(=O)c1CCCNS(=O)(=O)c1ccc([N+](=O)[O-])cc1 | 17.1 |
| Oc1c(Cl)cc(CN2CCOCC2)c2cccnc12 | 7.67 |
| CN1C(=CC=C2C=C(I)C(=O)C(I)=C2)C(C)(C)c2ccccc21 | 3.56 |
| COc1cc(C(=O)Nc2ccccc2C(=O)Nc2ccccn2)cc(OC)c1OC | 4.9 |
| O=C1OCC2=C1C(c1ccc3c(c1)OCO3)c1cc3c(cc1O2)OCO3 (stereo not given) | 3.26 |

| Structure (SMILES) | AC35 [µM] |
| --- | --- |
| CCCCN1C(=O)CC(C(=O)OCC)=C1C | 22 |
| CC(=O)NC(c1ccc(Cl)cc1Cl)c1ccc2cccnc2c1O (stereo not given) | 0.921 |
| COc1cc(NC(=O)N2CCNC2=O)cc(C(=O)Nc2cccc(C(F)(F)F)c2)c1 | 1.54 |
| COc1ccc(Nc2nc(-c3sc(C)nc3C)cs2)c(OC)c1 | 10 |
| Cc1ncc(CO)c(/C=N/Nc2ccc(C(F)(F)F)cn2)c1O | 4.63 |
| COc1cccc(S(=O)(=O)N(C)C[C@@H]2Oc3cc(C4=CCCC4)ccc3S(=O)(=O)N([C@H](C)CO)C[C@H]2C)c1 | 20.3 |
| COC(=O)c1ccc(S(=O)(=O)N2CCc3ccccc32)cc1 | 16.1 |
| CCCC(=O)NC(NC(=S)Nc1ccc(N=Nc2ccccc2)cc1)C(Cl)(Cl)Cl (stereo not given) | 5.73 |
| C[C@H](CO)N1C[C@H](C)[C@@H](CN(C)Cc2ccc(Cl)c(Cl)c2)Oc2ccc(NC(=O)Nc3ccc(C(F)(F)F)cc3)cc2CC1=O | 10.5 |
| COc1cccc2c1C(=O)c1c(O)c3c(c(O)c1C2=O)C[C@](O)(C(C)=O)C[C@H]3O[C@@H]1C[C@@H](N)[C@@H](O)[C@@H](C)O1 | 0.0738 |
| Nc1ccn(C2OC(CO)C(O)C2O)c(=O)n1 (stereo not given) | 6.2 |
| COc1ccc(NC(=O)C(=O)NCC2CCCN2S(=O)(=O)c2cccs2)cc1 (stereo not given) | 12.8 |
| COc1cccc(/C=N/Nc2ncnc(Cl)c2N)c1O | 2.15 |
| Oc1ccc2ccccc2c1N=Nc1nccs1 | 11.3 |
| Cc1ccc(C)c(CSc2nc3[nH]ncc3c(=O)[nH]2)c1 | 5.46 |
| CC1OC(OC2CC(O)C3(CO)C4C(O)CC5(C)C(C6=CC(=O)OC6)CCC5(O)C4CCC3(O)C2)C(O)C(O)C1O (stereo not given) | 0.201 |
| O=C(CCc1ccccc1)NCC(c1ccco1)N1CCc2ccccc21 (stereo not given) | 16.7 |
| CC(C)Nc1ccc(Nc2ccnc3cc4ccccc4cc23)cc1 | 2.44 |
| CCCCNC(=O)C(=O)Nc1ccc2c(c1)N(S(=O)(=O)c1cccs1)CCC2 | 12.7 |
| Cc1ccc(/C=N/NC(=O)c2c(-c3ccccc3)noc2C)c(O)c1 | 18.4 |
| O=[N+]([O-])c1ccc(Sc2cccc[n+]2[O-])c2nonc12 | 5.72 |
| COc1ccc(S(=O)(=O)NCc2ccccn2)cc1NC(=O)c1ccccc1F | 18.5 |
| CCOC(=O)c1c(C)[nH]c(C(=O)N/N=C\c2ccccc2O)c1C | 2.34 |
| COc1cc(OC)cc(-c2nc3ccccc3c(=O)n2OC(=O)c2ccc(C)c(C)c2)c1 | 21.5 |
| CC1(C)CCN2CCC(C)(C)c3c(O)ccc1c32 | 6.54 |
| CC/C=C/CC(=O)N[C@@H](c1ccccc1)[C@@H](O)C(=O)O[C@H]1C[C@@]2(O)[C@@H](OC(=O)c3ccccc3)C3[C@](C)(C(=O)[C@H](OC(C)=O)C(=C1C)C2(C)C)[C@@H](O)C[C@H]1OC[C@@]31OC(C)=O (stereo not given in full) | 1.98 |
| CCCC(=O)NC(c1ccc(C(C)C)cc1)c1ccc2cccnc2c1O (stereo not given) | 0.948 |

| Structure (SMILES) | AC35 [µM] |
| --- | --- |
| COc1ccc(S(=O)(=O)N2CC[C@@H]3[C@H](CO)N(C)c4ccc(-c5ccc(F)cc5)cc4[C@@H]32)cc1 | 2.21 |
| O=C(Cc1ccccc1)N1CC(=O)N2[C@H](CO)[C@@H](c3ccc(-c4ccccc4)cc3)[C@@H]2C1 | 18.7 |
| NS(=O)(=O)c1ccc(S(=O)(=O)N(CCc2ccccc2)Cc2ccccn2)cc1 | 21.5 |
| Nc1nc(Cl)nc2c1ncn2C1CC(O)C(CO)O1 (stereo not given) | 4.65 |
| C[C@@H]1O[C@@H](O[C@@H]2C=C3CC[C@@H]4C(CC[C@]5(C)[C@@H](c6ccc(=O)oc6)CC[C@]45O)[C@@]3(C)CC2)[C@H](O)[C@H](O)[C@H]1O (stereo not given in full) | 0.116 |
| O=C1C=CC(O)(c2cc(=O)c3c(O)cc(O)cc3o2)C=C1 | 8.15 |
| CCCCC(=NCCc1c(C)[nH]c2ccc(OC)cc12)C1=C(O)CC(c2ccccc2)CC1=O (stereo not given) | 8.11 |
| O=C1NC(=Nc2ccc(O)cc2)S/C1=C/c1ccco1 | 11.7 |
| NCC(=O)NNC(=O)OCC1c2ccccc2-c2ccccc21 | 12.7 |
| CC(=NNC(=O)c1ccncc1)c1ccc2ccccc2c1O | 2.59 |
| COc1ccc(C2=NOC(C(=O)NCc3ccc(F)cc3)C2)cc1OC (stereo not given) | 7.73 |
| CC(C)N1CCc2c(sc(NC(=O)c3ccc([N+](=O)[O-])o3)c2C(N)=O)C1 | 4.77 |
| COc1ccc(C2CC(c3cccc(Br)c3)=NN2c2ccc(S(N)(=O)=O)cc2)cc1 (stereo not given) | 18.1 |
| C[C@@H]1CN([C@H](C)CO)C(=O)c2cc(NS(=O)(=O)c3ccc(Cl)cc3)ccc2O[C@@H]1CN(C)Cc1ccc(-c2ccccc2)cc1 | 16.8 |
| Cc1ccc(COc2ccccc2-c2cc(C(=O)N/N=C/c3cccnc3)[nH]n2)cc1 | 14.7 |
| COc1ccc(-c2ccc3oc(-c4ccc(OC)cc4)c(C#CCO)c3c2)cc1 | 3.2 |
| CC1=C/C(=C\C=C(C#N)C#N)N(C)c2ccccc21 | 21.3 |
| N#Cc1ccc(-c2cccs2)nc1SCc1cccnc1 | 0.671 |
| Cc1nc(/N=C(\N)NC(=O)NC2CCCCC2)nc2ccccc12 | 20.2 |
| CN1/C(=C\C=C2/SC(=S)NC2=O)C(C)(C)c2ccccc21 | 17.9 |
| CC(=O)c1cccc(Nc2c3c(nc4ccccc24)CCC3)c1 | 17.9 |
| O=[N+]([O-])c1ccc(N=Nc2c(Cl)cc(O)cc2Cl)cc1 | 4.24 |
| COc1cccc(S(=O)(=O)N2C[C@@H]3N[C@H](C2)C3c2ccc(-c3ccccc3F)cc2)c1 (stereo not given in full) | 11.3 |
| Cn1c(C(=O)c2ccccc2[N+](=O)[O-])nc2ccccc21 | 14.3 |
| O=Nc1ccc(O)c2ncccc12 | 5.57 |
| CC[n+]1c(-c2ccccc2)c2cc(N)ccc2c2ccc(N)cc21 | 21.5 |
| O=C(NCCN1C(=O)S/C(=C\c2ccc(OC(F)F)cc2)C1=O)c1cnccn1 | 10.5 |

| Structure (SMILES) | AC35 [µM] |
| --- | --- |
| COc1ccccc1NC1=C(NC(C)=O)C(=O)c2ccccc2C1=O | 12.2 |
| Clc1ccc(SCc2cc(N3CCOCC3)nc(-c3ccccn3)n2)cc1 | 9 |
| COC1C(C)OC(OC2CC(C)(O)Cc3cc4c(c(O)c32)C(=O)c2c(O)cc3c(c2C4=O)OC2OC3(C)C(O)C(N(C)C)C2O)C(OC)C1(C)OC (stereo not given) | 5.03 |
| CC(=O)NC(c1ccc(Cl)cc1)c1ccc2cccnc2c1O (stereo not given) | 2.14 |
| CCN(CC)c1ccc(/C=N/NC(=O)c2cnccn2)c(O)c1 | 1.61 |
| CC(C)n1cc(/C=C/c2cc[n+](C)cc2)c2ccccc21 | 11.2 |
| O=C(c1cccc(S(=O)(=O)N2CCN(c3ccc(F)cc3)CC2)c1)N1CCCC(C(F)(F)F)C1 (stereo not given) | 9.64 |
| CC(C)(C)N(Cc1ccccc1)C(=O)c1cc2ccccc2o1 | 16.1 |
| Cc1ccc(-c2csc(Nc3ccccn3)n2)cc1 | 13 |
| CCC1=C(CC2NCCc3ccccc32)CC2c3cc(OC)c(OC)cc3CCN2C1 (stereo not given) | 18.2 |
| COc1ccc(CC(=O)NCc2ccc(-n3cccc3)cc2)cc1OC | 9.29 |
| CC(C)(C)c1ccc(/C=C/C(=O)c2ccc(NC3=NCCCS3)cc2)cc1 | 18.2 |
| O=C1c2ccc3c4c(ccc(c24)C(=O)N1CCCCO)C(=O)N(CCCCO)C3=O | 2.63 |
| CC(C)Cc1ccc(-c2cc3nc(NCc4cccc(Cl)c4)ccn3n2)cc1 | 11.1 |
| C#Cc1cc(N2CCN(C(=O)c3ccoc3)CC2)n2nc(-c3cccc(Cl)c3)cc2n1 | 7.94 |
| C#C[C@]1(O)CC[C@H]2[C@@H]3CCc4cc(OC5CCCC5)ccc4[C@H]3CC[C@@]21C | 21 |
| N#CC(C#N)=C1C=C2C=C(N3CCCCCC3)CCC2CC1 (stereo not given) | 18 |
| Nc1ccn([C@@H]2O[C@H](CO)[C@@H](O)[C@@H]2O)c(=O)n1 | 7.89 |
| CC(=NNC(=S)N(Cc1ccccn1)Cc1ccccn1)c1cnccn1 | 2.87 |
| COc1ccc(OC)c(C(=O)Cn2nnc(-c3ccc(N4CCOCC4)cc3)n2)c1 | 16.6 |
| Cn1cc(C(=O)N/N=C/c2ccc3c(c2)OCO3)c2ccccc21 | 11.2 |
| CCC(=O)N1CC2(CCN(Cc3ccc(Cl)cc3)CC2)c2c([nH]c3cc(OC)ccc23)[C@H]1CO | 9.3 |
| COc1ccc(OC)c(Nc2nc(-c3sc(NC(=O)C(C)(C)C)nc3C)cs2)c1 | 9.87 |
| C=C1C(=O)[C@]23C[C@H]1CC[C@H]2[C@]1(C)[C@@H](OC(C)=O)CC[C@@](C)(C(=O)O)[C@H]1C[C@@H]3O | 11.3 |
